Reference: PMC6222672, “Pharmacokinetic and Metabolism Studies of 12-Riboside-Pseudoginsengenin DQ by UPLC-MS/MS and UPLC-QTOF-MS^E” (Molecules : A Journal of Synthetic Chemistry and Natural …, 2018)
Entries after “also recorded” stand apart in the source; their conditions may differ. Read-outs that look alike come from different tables or passages of the source.

Key:
[1] = Pharmacokinetic study of RPDQ in rats after intragastric and intravenous administration (UPLC-MS/MS of plasma); format: in vivo, Wistar rats; settings: for AUC(0-t): read-out: AUC(0–60); for bioavailability: read-out: F (absolute bioavailability)
Protocol: The experiments on animals were approved by the Review Committee of Animal Care and Use of Jilin University. The study was conducted according to the ethical principles for animal use and care. Wistar rats (200 ± 20 g) were provided by Changchun Yisi Laboratory Animal Co. Ltd. (Changchun, China). All rats were housed in an environmentally controlled room (12 h light/dark cycle; temperature: 22 ± 2 °C; relative humidity: 55 ± 5%), and except during fast before experiments, the rats were fed with standard laboratory food and water ad libitum.
In the pharmacokinetic study, the rats were divided into different groups (n = 6, three males and three females): (1) RPDQ (6 mg/kg, i.g.), (2) RPDQ (12 mg/kg, i.g.), (3) RPDQ (24 mg/kg, i.g.), and (4) RPDQ (0.3 mg/kg, i.v.).
From the fossa orbitalis vein, the whole blood (150 μL) was collected at 0.5, 0.75, 1, 2, 3, 4, 6, 9, 10, 12, 18, 24, 48, and 60 h after oral administration, and 0.25, 0.5, 0.75, 1, 1.5, 2, 2.5, 3, 6, 12, and 24 h after intravenous administration. All the blood samples were anticoagulated with sodium heparin. After collection, the whole blood was centrifuged at 4000 rpm and 4 °C for 20 min to obtain plasma.
Plasma samples (being stored at −20 °C before analysis) were thawed and vortexed at room temperature. The mixture of each plasma sample (50 μL) and 20R-panaxadiol solution (100 ng/mL, 500 μL) was vortexed (2 min) and centrifuged (13,000 rpm, 4 °C, 10 min). The clear supernatant was obtained and transferred into vials, and 2 μL of it were then kept in autosampler at 4 °C and injected for analysis.
The analysis of pharmacokinetic was conducted on a Waters ACQUITY UPLC System coupled with a XEVO TQ-S mass spectrometer equipped with an electrospray ionization source (Waters, Milford, MA, USA). Separation was performed on a Waters BEH C18 UPLC column (2.1 × 50 mm, 1.7 μm) at 40 °C. The mobile phase, 0.1% formic aqueous solution (A) and 0.1% formic acid in acetonitrile (B) in proportions, was adjusted with a gradient elution programme (0 min, 40% B; 0~2 min, 40~100% B; 2~2.5 min, 100% B; 2.5~2.6 min, 100~40% B; 2.6~3.5 min, […]). The flow rate was kept constant at 0.3 mL/min. Chromatography of the RPDQ and IS was performed within 3.5 min. The injection volume was 2 μL. The multiple reaction monitoring (MRM) mode was performed in ESI^+. The main parameters were as follows: capillary voltage: 3000 V; source temperature: 150 °C; desolvation temperature: 300 °C; desolvation gas flow: 800 L/h; cone gas flow: 150 L/h; nebulizer gas flow: 7 bar; collision gas flow: 0.15 mL/min; cone voltage: 35 V and 28 V for RPDQ and IS, respectively; collision energy: 10 eV and 6 eV for RPDQ and IS, respectively. Masslynx V4.1 workstation (Waters, Milford, MA, USA) was used for data acquisition and processing.
Samples containing RPDQ above the upper limit of quantification were diluted and re-analyzed. The pharmacokinetics analysis in non-compartmental mode was conducted by Drug and Statistics (DAS) 3.0 pharmacokinetic software programme (Mathematical Pharmacology Professional Committee of China, Shanghai, China). The concentration versus the time curve was plotted. The time to reach the peak concentration (Tmax) and the maximum plasma concentration (Cmax) were obtained after oral administration. The results are shown as the mean ± standard deviation. The absolute bioavailability (F%) was calculated using the equation (AUCp.o. × Dosei.v.)/(AUCi.v. × Dosep.o.) × 100%.

A549 cells = experiment: MTT cell viability test, A549 cells; format: cell-based; settings: 1-200 μM, 44 h
Source text: Antitumor activity test of RPDQ in vitro by using S180, SPC-A-1 and A549 cells
Since the startmaterial for the semi-synthesis of 12-Riboside-pseudoginsengenin DQ (RPDQ) was pseudoginsengenin DQ (PDQ), the antitumor activities of RPDQ […]
and PDQ were both tested.
The SPC-A-1 and S180 tumor cell lines were purchased from Wuhan Procell Life Science & Technology Co,.Ltd. A549 tumor cell lines were purchased from iCell Bioscience Inc (Shanghai) Biological Co., Ltd.
2. Experimental procedure
S180 cells (1 × 10^5 cells/mL) were seeded into a 96-well plate. After 24 h, pretreated with various concentrations of RPDQ or PDQ (1-200 μM) for 44 h at 37℃, and the cells were treated with MTT for 4 h. The formazan crystal product in the cells were dissolved with acid isopropanol. The absorbance was measured at 570 nm with a […]
SPC-A-1/A549 cells(1×10^5 cells/mL) were seeded into a 96-well plate. After 24 h, pretreated with various concentrations of RPDQ or PDQ (1-200 μM) for 44 h at 37℃ , and the cells were treated with MTT for 4 h. […] The absorbance was measured at 490 nm with a […]
Cell viability was calculated by the following formula: Cell viability (%)= 1-{(ODcontrolgroup-ODtreatedgroup)/ODcontrol group×100%}.
All data were processed by statistical software SPSS 17.0. The data were expressed as Mean ± Standard Deviation. The differences between groups were analyzed by one-way analysis of variance. […]

[2] = both sexes, Wistar, rat, plasma, iv, rats, 0.3 mg/kg i.v.
[3] = both sexes, Wistar, rat, plasma, po, rats, 6 mg/kg intragastric
[4] = both sexes, Wistar, rat, plasma, po, rats, 12 mg/kg intragastric
[5] = both sexes, Wistar, rat, plasma, po, rats, 24 mg/kg intragastric

Molecule `CC(C)(O)[C@@H]1CC[C@@](C)([C@H]2CC[C@]3(C)[C@@H]2[C@H](O[C@@H]2O[C@H](CO)[C@@H](O)[C@H]2O)C[C@@H]2[C@@]4(C)CC[C@H](O)C(C)(C)[C@@H]4CC[C@]23C)O1` [RPDQ, 20S, 24S-12-O-β-D-ribofuranosyl-dammar-20, 24-epoxy-3β, 12β, 25-triol] has an AUC(0-inf) [1, 2] of 8330 ± 270 ng·h/mL, a Tmax [1, 2] of 0.25 h and a half-life [1, 2] of 2.94 ± 0.51 h. For the same molecule, the AUC(0-t) [1, 2] was 8300 ± 258 ng·h/mL, the clearance ([1]; both sexes, Wistar, rat, plasma, iv, rats, 0.3 mg/kg i.v., read-out: CLz (converted)) was 0.667 mL/min/kg and the Vd ([1]; both sexes, Wistar, rat, plasma, iv, rats, 0.3 mg/kg i.v., read-out: Vz) was 11.52 ± 0.02 L/kg. The AUC(0-inf) [1, 3] was 9570 ± 546 ng·h/mL, the Tmax [1, 3] was 7 ± 1.55 h and the half-life [1, 3] was 12.6 ± 1.28 h. For the same molecule, the bioavailability ([1]; both sexes, Wistar, rat, plasma, po, rats, 6 mg/kg intragastric vs 0.3 mg/kg i.v.) was 5.55%, the AUC(0-t) [1, 3] was 9210 ± 608 ng·h/mL and the AUC(0-inf) [1, 4] was 17700 ng·h/mL. The Tmax [1, 4] was 7.5 ± 1.63 h, the half-life [1, 4] was 12.8 ± 0.56 h and the bioavailability ([1]; both sexes, Wistar, rat, plasma, po, rats, 12 mg/kg intragastric vs 0.3 mg/kg i.v.) was 5.15%. It also gave an AUC(0-t) [1, 4] of 17100 ng·h/mL, an AUC(0-inf) [1, 5] of 42600 ng·h/mL and a Tmax [1, 5] of 7 ± 1.55 h. The half-life [1, 5] was 13.7 ± 1.11 h, the bioavailability ([1]; both sexes, Wistar, rat, plasma, po, rats, 24 mg/kg intragastric vs 0.3 mg/kg i.v.) was 6.08% and the AUC(0-t) [1, 5] was 40400 ng·h/mL. For the same molecule, the concentration at 6 h ([1]; both sexes, Wistar, rat plasma sample collected at 6 h after an oral dose of 12 mg/kg) was 1000 ng/mL, the CLz ([1]; rats, 6 mg/kg intragastric) was 10.5 ± 0.6 mL/min/kg and the Vz ([1]; rats, 6 mg/kg intragastric) was 11.45 ± 1.55 L/kg. The CLz ([1]; rats, 12 mg/kg intragastric) was 11.3 ± 0.367 mL/min/kg, the Vz ([1]; rats, 12 mg/kg intragastric) was 12.53 ± 0.59 L/kg and the CLz ([1]; rats, 24 mg/kg intragastric) was 9.5 ± 0.733 mL/min/kg. The Vz ([1]; rats, 24 mg/kg intragastric) was 11.28 ± 1.69 L/kg, the “time at which RPDQ could still be quantified in plasma” value ([1]; rats, after gastrointestinal administration) was 60 h and the “anticancer / anti-proliferation effect” value (A549 cells) was “good anti-proliferation effects; also recorded: significant anticancer activity”.
